Experiments:
Assay in all cases: relative viability (nuclei count vs DMSO), 5 days (fraction); higher = more cells survive
Crizotinib + Luminespib = compound: C[C@@H](Oc1cc(-c2cnn(C3CCNCC3)c2)cnc1N)c1c(Cl)ccc(F)c1Cl [Crizotinib] + CCNC(=O)c1noc(-c2cc(C(C)C)c(O)cc2O)c1-c1ccc(CN2CCOCC2)cc1 [Luminespib] (partner 0.01 µM)
How it was run: (§1)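 One day after seeding in 1536-well plates, lung cancer cell lines were dosed by pin tool. Dosing was either single-drug or a fixed anchor-drug dose plus five library-drug doses (not always all listed) in √10 steps. After 5 days, nuclei were stained in one fix-and-stain step and counted on 4× images, and relative viability is the nuclei count of treated wells over that of vehicle wells, given as the median of duplicate plates.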

Olaparib + Decitabine = compound: O=C(c1cc(Cc2n[nH]c(=O)c3ccccc23)ccc1F)N1CCN(C(=O)C2CC2)CC1 [Olaparib] + Nc1ncn([C@H]2C[C@H](O)[C@@H](CO)O2)c(=O)n1 [Decitabine] (partner 2 µM)
How it was run: as §1

Crizotinib + Decitabine = compound: C[C@@H](Oc1cc(-c2cnn(C3CCNCC3)c2)cnc1N)c1c(Cl)ccc(F)c1Cl [Crizotinib] + Nc1ncn([C@H]2C[C@H](O)[C@@H](CO)O2)c(=O)n1 [Decitabine] (partner 2 µM)
How it was run: as §1

Crizotinib + Palbociclib = compound: C[C@@H](Oc1cc(-c2cnn(C3CCNCC3)c2)cnc1N)c1c(Cl)ccc(F)c1Cl [Crizotinib] + CC(=O)c1c(C)c2cnc(Nc3ccc(N4CCNCC4)cn3)nc2n(C2CCCC2)c1=O [Palbociclib] (partner 0.5 µM)
How it was run: as §1

Crizotinib + Olaparib = compound: C[C@@H](Oc1cc(-c2cnn(C3CCNCC3)c2)cnc1N)c1c(Cl)ccc(F)c1Cl [Crizotinib] + O=C(c1cc(Cc2n[nH]c(=O)c3ccccc23)ccc1F)N1CCN(C(=O)C2CC2)CC1 [Olaparib] (partner 8 µM)
How it was run: as §1

Olaparib + Foretinib = compound: O=C(c1cc(Cc2n[nH]c(=O)c3ccccc23)ccc1F)N1CCN(C(=O)C2CC2)CC1 [Olaparib] + COc1cc2c(Oc3ccc(NC(=O)C4(C(=O)Nc5ccc(F)cc5)CC4)cc3F)ccnc2cc1OCCCN1CCOCC1 [Foretinib] (partner 0.25 µM)
How it was run: as §1

NCI-H1793
relative viability (Crizotinib + Luminespib; first compound 0.03162 µM): 0.209 | relative viability (Crizotinib + Luminespib; first compound 0.1 µM): 0.178 | relative viability (Crizotinib + Luminespib; first compound 1 µM): 0.161 | relative viability (Olaparib + Decitabine; first compound 0.08 µM): 0.338 | relative viability (Olaparib + Decitabine; first compound 0.253 µM): 0.417 | relative viability (Olaparib + Decitabine; first compound 2.53 µM): 0.337 | relative viability (Olaparib + Decitabine; first compound 8 µM): 0.326 | relative viability (Crizotinib + Decitabine; first compound 0.03162 µM): 0.522 | relative viability (Crizotinib + Decitabine; first compound 0.1 µM): 0.53 | relative viability (Crizotinib + Decitabine; first compound 1 µM): 0.555 | relative viability (Crizotinib + Palbociclib; first compound 0.03162 µM): 0.339 | relative viability (Crizotinib + Palbociclib; first compound 0.1 µM): 0.311 | relative viability (Crizotinib + Palbociclib; first compound 1 µM): 0.277 | relative viability (Crizotinib + Olaparib; first compound 0.1 µM): 0.835 | relative viability (Crizotinib + Olaparib; first compound 1 µM): 0.903 | relative viability (Olaparib + Foretinib; first compound 0.08 µM): 0.684 | relative viability (Olaparib + Foretinib; first compound 0.253 µM): 0.624 | relative viability (Olaparib + Foretinib; first compound 2.53 µM): 0.648 | relative viability (Olaparib + Foretinib; first compound 8 µM): 0.706

Reference: the supplement of paper PMC10307832
